Laboratory results reported in patent publication EP0558245A1, “Heterobicyclic compounds as antagogists of alpha-1 adrenergic and SHT1A receptors” (priority 1992, dated 1993).
Where a name gives a salt, the structure may show the parent alone. Read-outs that look alike come from different tables or passages of the source.

Experiments:
α₁ receptors = assay: [3H]prazosin binding (α1 receptors), rat cerebral cortex membranes; details: rat cerebral cortex crude membranes, [3H]prazosin 0.35 nM, 25°C 30 min; read-out: Receptor Binding IC50 (nM) α1
5HT1A receptors = molecular target: T1, 5HT1A receptors (Rattus norvegicus, UniProt P19327); assay: [3H]8-OH-DPAT binding (5HT1A receptors), rat hippocampus membranes; details: rat hippocampus crude membranes, [3H]8-OH-DPAT 1.0 nM, 25°C 30 min; read-out: Receptor Binding IC50 (nM) 5-HT1a
T1 construct: Rat hippocampi were homogenized; from tissue; host or cells: rat hippocampus membranes
T1 sequence (P19327 1-422): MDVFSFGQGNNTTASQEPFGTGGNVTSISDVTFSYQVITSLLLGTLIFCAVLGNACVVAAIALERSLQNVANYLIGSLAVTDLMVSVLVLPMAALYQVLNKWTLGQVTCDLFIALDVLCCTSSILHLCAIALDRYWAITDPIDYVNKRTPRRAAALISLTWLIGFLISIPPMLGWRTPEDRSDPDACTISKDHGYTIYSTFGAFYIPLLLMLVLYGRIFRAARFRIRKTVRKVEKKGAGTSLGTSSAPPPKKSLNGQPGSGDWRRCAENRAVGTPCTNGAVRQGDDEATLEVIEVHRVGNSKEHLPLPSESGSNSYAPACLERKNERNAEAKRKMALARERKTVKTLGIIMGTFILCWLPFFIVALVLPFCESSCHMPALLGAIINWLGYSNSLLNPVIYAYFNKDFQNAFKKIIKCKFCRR
Experimental: Rat hippocampi were homogenized in 50 volumes of original wet weight of ice-cold 50 mM Tris-HCl buffer pH 7.4. The homogenates were centrifuged at 48,000 x g for 10 minutes, and the pellets were resuspended in the same volume of ice-cold buffer, incubated for 10 minutes at 37°C, centrifuged and resuspended two more times. The final pellets obtained were resuspended in the same volume of buffer and incubated according to the conditions reported in the table below.
The incubations were terminated after the appropriate time (see table) by rapid filtration through Whatman GF/B filters using a Brandel cell harvester. The filters were washed twice with 15 ml of ice-cold buffer (see table). The radioactivity retained on the filters was determined by liquid scintillation counting. Nonspecific binding (which amounted generally to 10-30%) was evaluated by adding high concentrations of the specific displacers (see table). All the compounds were initially tested at 1x10⁻⁶ M concentration, and in the presence of significant displacing activity, a complete competition curve was generated (down to a concentration of 10⁻¹¹ M). All the samples were run in triplicate.
The competition curves were always analyzed (to evaluate the IC₅₀ values) by non linear curve fitting of the logistic equation according to the method reported by De Lean et al. (Am. J. Physiol., 235, E97, 1978), utilizing the ALLFIT program [publically available from the National Institutes of Health (N.I.H.) Bethesda, Maryland, USA] written for the IBM PC.

[1] = Acute toxicity in mice after intraperitoneal and oral administration; details: mouse, in vivo, female albino Swiss mice, mortality recorded 7 days after administration
Method in brief: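 Female albino Swiss mice (20-30 g) dosed i.p. or orally at four log-scaled doses in 0.5% Methocel (10 ml/kg), 4 mice/dose. Mortality recorded at 7 days; LD₅₀ with fiducial limits by Weil's method.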

rat bladder strips = assay: K+-induced contractions of rat bladder strips; format: cell-based; details: 80 mM KCl, drug added 30 minutes before
Experimental: The whole bladder of the rat was removed and immediately placed in Krebs solution warmed at 37°C. […] Each strip was placed in a 10 ml organ bath and connected, under a constant load of 1 g, to an isometric strain gauge (DY-1 Basile, Comerio, Varese, Italy). […] After a 60 minutes equilibration period the strips were exposed to 80 mM KCl (final concentration). […] When the tonic contraction was stable, the strips were washed and 30 minutes later a new contraction was induced. After having recorded two or more reproducible responses, one concentration of the tested drugs was added to the bath and 30 minutes later a new contraction was induced. The experimental groups consisted of at least two preparations taken from different animals for each concentration of drug tested. The IC₅₀ values of inhibition of agonist-induced contractions were evaluated by linear regression analysis.

[2] = system: noradrenaline induced contraction of urethra; assay: Effects on urethral contractions (noradrenaline-induced) in anaesthetized dogs; format: in vivo; details: for ED50: Canis lupus familiaris, iv, anaesthetized male beagle dogs, i.v. cumulative, active dose in inhibiting by 50% the noradrenaline induced contraction of urethra, read-out: Urethra ED50; for DBP/Urethra ratio: ratio between the active doses (selectivity index), * = non-selective: substantial effect on both urethra and DBP
Source text: (§1) In order to monitor systemic blood pressure (BP), a PE catheter was introduced into the aortic arch through the right common carotid artery.
(§2) A collateral of the left femoral vein was cannulated for infusion of anaesthetic, and the right femoral vein was cannulated for administration of drugs. For intrarterial (i.a.) injection of noradrenaline (NA), a PE catheter was introduced into the lower portion of abdominal aorta via the right external iliac artery. Through such procedure, NA was selectively distributed to the lower urinary tract. Via a midline laparotomy, the urinary bladder and proximal urethra were exposed. In order to prevent the filling of the bladder, the two ureters were cannulated and the urine led outside. In order to record the prostatic urethral pressure, a Mikro-tip catheter (6 F) was introduced into the bladder via the external urethral meatus, and withdrawn until the pressure transducer was positioned in the prostatic urethra. A ligature was secured between the neck of the bladder and urethra to isolate the response of the latter and avoid any interaction with the bladder. Another ligature was put around the Mikro-tip catheter at the external urethral meatus, to secure the catheter itself. After a stabilizing period following surgical procedure (30 min), in which arterial and prostatic urethral pressure were continuously monitored as basal values, i.a. administration of NA was made at intervals of 10 min. The dose of NA chosen was such to produce an increase of at least 100% in urethral pressure. The test compounds were administered i.v. in a cumulative manner with intervals of 15-20 min between administrations. I.a. injections of NA were repeated approximately 5 min. after every dosing of test compound. Dose response curves were constructed computing the percentage inhibition to the increase in urethral pressure (NA induced), and the percentage drop in blood pressure produced by the test compound.

diastolic blood pressure = assay: Effects on blood pressure in anaesthetized dogs; format: in vivo; details: Canis lupus familiaris, iv; anaesthetized male beagle dogs, i.v. cumulative; active dose in lowering diastolic blood pressure by 25%; read-out: DBP ED25
Source text: as §1, §2

[3] = ip, intraperitoneal, read-out: Acute Toxicity in Mice LD50 (mg/kg) i.p.
[4] = oral, read-out: Acute Toxicity in Mice LD50 (mg/kg) p.o.
[5] = phasic contraction, read-out: K+ Stimulation of Rat Bladder IC50 (μM) Contractions Phasic
[6] = tonic contraction, read-out: K+ Stimulation of Rat Bladder IC50 (μM) Contractions Tonic

Structure (SMILES)	IC50 (α₁ receptors)	IC50 (5HT1A receptors)	LD50 at 168 h [1, 3]	LD50 at 168 h [1, 4]	IC50 (rat bladder strips; [5])	IC50 (rat bladder strips; [6])	ED50 [2]	DBP/Urethra ratio [2]	ED25 (diastolic blood pressure)
COc1ccccc1N1CCN(CCCNC(=O)c2cccc3c(=O)c(C)c(-c4ccccc4)oc23)CC1 [Example 11, 8-{3-[4-(2-methoxyphenyl)-1-piperazinyl]-propylcarbamoyl}-3-methyl-4-oxo-2-phenyl-4H-1-benzopyran dihydrochloride hemihydrate]	29 nM	9 nM	247 mg/kg	297 mg/kg	2.9 µM	3 µM	0.0014 mg/kg	278.6	0.39 mg/kg
COc1ccccc1N1CCN(CCNC(=O)c2cccc3c(=O)c(C)c(-c4ccccc4)oc23)CC1 [Example 13, 8-{2-[4-(2-methoxyphenyl)-1-piperazinyl]-ethylcarbamoyl}-3-methyl-4-oxo-2-phenyl-4H-1-benzopyran monohydrochloride hemihydrate]	68 nM	229 nM	> 1000 mg/kg	> 3000 mg/kg	10 µM	10 µM	0.016 mg/kg	13.4	0.215 mg/kg
COc1ccccc1N1CCN(CC(O)c2cccc3c(=O)c(C)c(-c4ccccc4)oc23)CC1.Cl (stereo not drawn) [Example 17, 8-{1-hydroxy-2-[4-(2-methoxyphenyl)-1-piperazinyl]-ethyl}-3-methyl-4-oxo-2-phenyl-4H-1-benzopyran hydrochloride]	59 nM	910 nM	299 mg/kg	608 mg/kg	8.8 µM	3.8 µM	0.01 mg/kg	0.6*	0.0062 mg/kg
COc1ccccc1N1CCN(CCOCc2cccc3c(=O)c(C)c(-c4ccccc4)oc23)CC1.Cl.Cl [Example 27, 8-{2-[4-(2-methoxyphenyl)-1-piperazinyl]-ethoxymethyl}-3-methyl-4-oxo-2-phenyl-4H-1-benzopyran dihydrochloride]	23 nM	124 nM	399 mg/kg	> 3000 mg/kg	1 µM	0.8 µM	0.0032 mg/kg	3.1*	0.0098 mg/kg
COc1ccccc1N1CCN(CCCOc2cccc3c(=O)c(C)c(-c4ccccc4)oc23)CC1.Cl.Cl [Example 40, 8-{3-[4-(2-methoxyphenyl)-1-piperazinyl]-propoxy}-3-methyl-4-oxo-2-phenyl-4H-1-benzopyran dihydrochloride]	75 nM	83 nM	140 mg/kg	349 mg/kg	0.5 µM	0.9 µM	0.011 mg/kg	13.8	0.152 mg/kg
COc1ccccc1N1CCN(CCCCCOc2cccc3c(=O)c(C)c(-c4ccccc4)oc23)CC1.Cl [Example 42, 8-{5-[4-(2-methoxyphenyl)-1-piperazinyl]-pentyloxy}-3-methyl-4-oxo-2-phenyl-4H-1-benzopyran hydrochloride]	111 nM	39 nM	459 mg/kg	2160 mg/kg	10 µM	10 µM	0.031 mg/kg	13.0	0.404 mg/kg
COc1ccccc1N1CCN(CCCS(=O)(=O)c2cccc3c(=O)c(C)c(-c4ccccc4)oc23)CC1.Cl [Example 47, 8-{3-[4-(2-methoxyphenyl)-1-piperazinyl]-propylsulphonyl}-3-methyl-4-oxo-2-phenyl-4H-1-benzopyran hydrochloride]	36 nM	23 nM	330 mg/kg	1050 mg/kg	2.7 µM	5.2 µM	0.035 mg/kg	15.1	0.53 mg/kg
